# In ChEMBL document CHEMBL2417397, “Synthesis and biological properties of new N-Mannich bases derived from 3-methyl-3-phenyl- and 3,3-dimethyl-succinimides. Part V” (Eur J Med Chem, 2013):
# Calls of active or inactive are those of the source. The rule behind the calls is not given here.
# Legend:
# Vibrio harveyi [1] = assay: Induction of mutagenecity in Vibrio harveyi BB7XM; format: organism-based; details: in vivo
# [2] = Neurotoxicity in po dosed Sprague-Dawley albino rat at 30 mg/kg, po after 0.25 to 4 hrs by rotarod test; format: toxicity, organism-based; design: dose 30 mg/kg, route oral; details: in vivo
# Mus musculus [3] = assay: Anticonvulsant activity in ip dosed CF-1 albino mouse assessed as protection against maximal electroshock-induced seizures after 0.5 to 4 hrs; format: functional
# Rattus norvegicus [4] = assay: Anticonvulsant activity in Sprague-Dawley albino rat assessed as protection against maximal electroshock-induced seizures at 30 mg/kg, po after 4 hrs; format: functional
# Rattus norvegicus [5] = assay: Neurotoxicity in Sprague-Dawley albino rat assessed as motor impairment at 30 mg/kg, po; format: toxicity, organism-based; design: dose 30 mg/kg, route oral; details: in vivo
# Rattus norvegicus [6] = assay: Anticonvulsant activity in Sprague-Dawley albino rat assessed as protection against maximal electroshock-induced seizures at 30 mg/kg, po after 2 hrs; format: functional
# Rattus norvegicus [7] = assay: Anticonvulsant activity in Sprague-Dawley albino rat assessed as protection against maximal electroshock-induced seizures at 30 mg/kg, po after 0.25 hrs; format: functional
# Mus musculus [8] = assay: Anticonvulsant activity in CF-1 albino mouse assessed as time of peak effect for protection against maximal electroshock-induced seizures at 30 to 300 mg/kg, ip; format: functional; details: dose mg/kg 30-300; route intraperitoneal
# Rattus norvegicus [9] = assay: Anticonvulsant activity in Sprague-Dawley albino rat assessed as time of peak effect for protection against maximal electroshock-induced seizures at 30 mg/kg, po; format: functional
# [10] = biological target: Sodium channel protein type 2 subunit alpha (Homo sapiens) (UniProt Q99250); assay: Inhibition of NaV1.2 channel (unknown origin) at 10 uM by electrophysiology
# Mus musculus [11] = assay: Neurotoxicity in CF-1 albino mouse at 300 mg/kg, ip after 0.5 hrs by rotarod test; format: toxicity, organism-based; design: dose 300 mg/kg, route intraperitoneal; details: in vivo
# Mus musculus [12] = organism: Mus musculus; assay: Protective index, ratio of TD50 for CF-1 albino mouse by rotarod test to ED50 for CF-1 albino mouse; format: functional
# [13] = biological target: Sodium channel protein type 2 subunit alpha (Homo sapiens) (UniProt Q99250); assay: Inhibition of NaV1.2 channel (unknown origin) at 0.1 uM by electrophysiology
# Mus musculus [14] = assay: Anticonvulsant activity in CF-1 albino mouse assessed as protection against 6 Hz psychomotor seizure at 100 mg/kg, ip after 0.5 hrs; format: functional
# Vibrio harveyi [15] = assay: Antimutagenic activity in Vibrio harveyi BB7M assessed as inhibition of 4-nitroquinoline-N-oxide-induced mutation; format: functional
# Vibrio harveyi [16] = assay: Induction of mutagenecity in Vibrio harveyi BB7M; format: organism-based; details: in vivo
# Rattus norvegicus [17] = organism: Rattus norvegicus; assay: Ratio of phenytoin ED50 to compound ED50 for Sprague-Dawley albino rat; format: functional
# Vibrio harveyi [18] = assay: Antimutagenic activity in Vibrio harveyi BB7 assessed as inhibition of 4-nitroquinoline-N-oxide-induced mutation; format: functional
# Rattus norvegicus [19] = assay: Anticonvulsant activity in po dosed Sprague-Dawley albino rat assessed as protection against maximal electroshock-induced seizures after 0.25 to 4 hrs; format: functional
# Vibrio harveyi [20] = assay: Antimutagenic activity in Vibrio harveyi BB7X assessed as inhibition of 4-nitroquinoline-N-oxide-induced mutation; format: functional
# Vibrio harveyi [21] = assay: Antimutagenic activity in Vibrio harveyi BB7XM assessed as inhibition of 4-nitroquinoline-N-oxide-induced mutation; format: functional
# [22] = biological target: Sodium channel protein type 2 subunit alpha (Homo sapiens) (UniProt Q99250); assay: Inhibition of NaV1.2 channel (unknown origin) at 1 uM by electrophysiology
# Rattus norvegicus [23] = assay: Anticonvulsant activity in Sprague-Dawley albino rat assessed as protection against maximal electroshock-induced seizures at 30 mg/kg, po after 0.5 hrs; format: functional
# Mus musculus [24] = assay: Anticonvulsant activity in CF-1 albino mouse assessed as protection against 6 Hz psychomotor seizure at 100 mg/kg, ip after 2 hrs; format: functional
# Mus musculus [25] = assay: Anticonvulsant activity in CF-1 albino mouse assessed as protection against 6 Hz psychomotor seizure at 100 mg/kg, ip after 1 hr; format: functional; details: route intraperitoneal
# Mus musculus [26] = assay: Anticonvulsant activity in CF-1 albino mouse assessed as protection against 6 Hz psychomotor seizure at 100 mg/kg, ip after 4 hrs; format: functional
# Rattus norvegicus [27] = organism: Rattus norvegicus; assay: Protective index, ratio of TD50 for Sprague-Dawley albino rat by rotarod test to ED50 for Sprague-Dawley albino rat; format: functional
# [28] = biological target: Sodium channel protein type 2 subunit alpha (Homo sapiens) (UniProt Q99250); assay: Inhibition of NaV1.2 channel (unknown origin) at 100 uM by electrophysiology
# Rattus norvegicus [29] = assay: Anticonvulsant activity in Sprague-Dawley albino rat assessed as protection against maximal electroshock-induced seizures at 30 mg/kg, po after 1 hr; format: functional
# Vibrio harveyi [30] = assay: Induction of mutagenecity in Vibrio harveyi BB7; format: organism-based; details: in vivo
# Mus musculus [31] = assay: Anticonvulsant activity in CF-1 albino mouse assessed as protection against maximal electroshock-induced seizures at 300 mg/kg, ip after 0.5 hrs; format: functional, organism-based; design: dose 300 mg/kg
# Vibrio harveyi [32] = assay: Induction of mutagenecity in Vibrio harveyi BB7X; format: organism-based; details: in vivo
# [33] = Neurotoxicity in ip dosed CF-1 albino mouse at 30 to 300 mg/kg, ip after 0.5 to 4 hrs; format: toxicity, organism-based; design: route intraperitoneal; details: CF-1, mouse, in vivo
# Mus musculus [34] = assay: Anticonvulsant activity in ip dosed CF-1 albino mouse assessed as protection against maximal electroshock-induced seizures after 4 hrs; format: functional
# Mus musculus [35] = assay: Anticonvulsant activity in CF-1 albino mouse assessed as protection against 6 Hz psychomotor seizure at 100 mg/kg, ip after 0.25 hrs; format: functional
# [36] = Neurotoxicity in ip dosed CF-1 albino mouse after 4 hrs by rotarod test; format: toxicity, organism-based; details: CF-1, mouse, in vivo
# [37] = Neurotoxicity in ip dosed CF-1 albino mouse after 0.5 hrs by rotarod test; format: toxicity, organism-based; details: CF-1, mouse, in vivo
# Mus musculus [38] = assay: Neurotoxicity in CF-1 albino mouse at 300 mg/kg, ip after 4 hrs by rotarod test; format: toxicity, organism-based; design: dose 300 mg/kg, route intraperitoneal; details: in vivo
# Mus musculus [39] = assay: Anticonvulsant activity in CF-1 albino mouse assessed as protection against 6 Hz psychomotor seizure at 100 mg/kg, ip after 0.25 to 4 hrs; format: functional; details: route intraperitoneal
# Sodium channel protein type 2 subunit alpha (Homo sapiens), sequence (Q99250 whole entry, looked up): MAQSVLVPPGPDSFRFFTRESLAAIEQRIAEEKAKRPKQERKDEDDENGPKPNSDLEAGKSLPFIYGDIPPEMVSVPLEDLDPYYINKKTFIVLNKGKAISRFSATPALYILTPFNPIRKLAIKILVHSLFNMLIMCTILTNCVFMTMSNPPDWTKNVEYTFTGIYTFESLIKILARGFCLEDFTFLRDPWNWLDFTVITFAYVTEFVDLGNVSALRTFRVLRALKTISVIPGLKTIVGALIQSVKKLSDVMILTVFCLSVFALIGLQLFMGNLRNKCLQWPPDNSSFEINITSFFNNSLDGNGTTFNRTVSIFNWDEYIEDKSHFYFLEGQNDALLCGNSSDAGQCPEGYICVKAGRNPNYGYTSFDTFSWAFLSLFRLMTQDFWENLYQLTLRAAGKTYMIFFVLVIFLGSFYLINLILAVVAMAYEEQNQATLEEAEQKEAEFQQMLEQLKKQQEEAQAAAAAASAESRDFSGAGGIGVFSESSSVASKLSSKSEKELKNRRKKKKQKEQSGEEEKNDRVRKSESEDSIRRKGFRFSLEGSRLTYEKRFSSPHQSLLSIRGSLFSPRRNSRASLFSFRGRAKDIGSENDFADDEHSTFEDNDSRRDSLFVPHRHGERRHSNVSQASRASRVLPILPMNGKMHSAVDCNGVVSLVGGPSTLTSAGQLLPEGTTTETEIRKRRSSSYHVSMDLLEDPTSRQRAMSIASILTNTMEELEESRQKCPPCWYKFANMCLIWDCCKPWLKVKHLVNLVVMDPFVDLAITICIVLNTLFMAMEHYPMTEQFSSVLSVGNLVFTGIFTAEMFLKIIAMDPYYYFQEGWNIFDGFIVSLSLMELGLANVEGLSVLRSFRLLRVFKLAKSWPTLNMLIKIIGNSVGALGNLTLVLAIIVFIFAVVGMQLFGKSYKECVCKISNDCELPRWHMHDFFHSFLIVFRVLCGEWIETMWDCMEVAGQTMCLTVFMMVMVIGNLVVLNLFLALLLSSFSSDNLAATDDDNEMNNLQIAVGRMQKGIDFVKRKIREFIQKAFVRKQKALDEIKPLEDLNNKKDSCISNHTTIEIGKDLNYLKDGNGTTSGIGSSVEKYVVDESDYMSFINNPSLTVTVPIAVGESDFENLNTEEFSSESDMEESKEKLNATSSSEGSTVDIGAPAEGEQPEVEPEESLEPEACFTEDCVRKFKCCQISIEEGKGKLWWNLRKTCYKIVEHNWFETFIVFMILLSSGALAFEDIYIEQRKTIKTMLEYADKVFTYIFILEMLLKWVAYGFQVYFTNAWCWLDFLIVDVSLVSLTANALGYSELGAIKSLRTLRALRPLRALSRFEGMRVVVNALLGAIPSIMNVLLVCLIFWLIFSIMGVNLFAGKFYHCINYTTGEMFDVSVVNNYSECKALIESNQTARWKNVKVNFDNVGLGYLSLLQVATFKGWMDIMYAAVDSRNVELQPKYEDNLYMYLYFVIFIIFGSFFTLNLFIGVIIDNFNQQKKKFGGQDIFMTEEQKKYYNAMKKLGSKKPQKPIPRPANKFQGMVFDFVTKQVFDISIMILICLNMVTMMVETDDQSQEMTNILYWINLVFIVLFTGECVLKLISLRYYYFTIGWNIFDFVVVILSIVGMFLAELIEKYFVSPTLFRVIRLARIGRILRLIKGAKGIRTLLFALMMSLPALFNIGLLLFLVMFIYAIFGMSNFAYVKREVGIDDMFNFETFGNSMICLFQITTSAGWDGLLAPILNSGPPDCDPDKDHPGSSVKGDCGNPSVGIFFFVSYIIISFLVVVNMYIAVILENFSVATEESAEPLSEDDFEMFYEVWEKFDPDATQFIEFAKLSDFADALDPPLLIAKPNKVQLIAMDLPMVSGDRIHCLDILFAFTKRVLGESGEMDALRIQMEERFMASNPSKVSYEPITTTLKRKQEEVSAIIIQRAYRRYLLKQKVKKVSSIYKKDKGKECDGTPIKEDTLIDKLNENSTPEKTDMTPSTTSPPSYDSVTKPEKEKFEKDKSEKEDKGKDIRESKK
Compound,Activity (Vibrio harveyi [1]),TD50 [2] [mg/kg],ED50 (Mus musculus [3]) [mg/kg],Activity (Rattus norvegicus [4]),Activity (Rattus norvegicus [5]),Activity (Rattus norvegicus [6]),Activity (Rattus norvegicus [7]),Time (Mus musculus [8]) [h],Time (Rattus norvegicus [9]) [h],inhibition [10] [%],Ratio TD50/ED50 (Mus musculus [12]),inhibition [13] [%],Activity (Vibrio harveyi [16]),ED50 (Rattus norvegicus [19]) [mg/kg],inhibition [22] [%],Activity (Rattus norvegicus [23]),Activity (Mus musculus [25]) [%],Ratio TD50/ED50 (Rattus norvegicus [27]),inhibition [28] [%],Activity (Rattus norvegicus [29]),further results
CC1(c2ccccc2)CC(=O)N(CN2CCN(c3ccc(F)cc3)CC2)C1=O (centres undefined),Non-toxic,65.6,120,75%,Non-toxic,75%,25%,8,4,26.8,4.16,10.6,Non-toxic,7.78,14.9,25%,25,8.43,64,50%,Activity (Mus musculus [11]): Non-toxic; Activity (Mus musculus [14]): inactive; inhibition (INH) (Vibrio harveyi [15]): 62%; Ratio ED50 (Rattus norvegicus [17]): 3.5; inhibition (INH) (Vibrio harveyi [18]): 8%; inhibition (INH) (Vibrio harveyi [20]): 0%; inhibition (INH) (Vibrio harveyi [21]): 49%; Activity (Mus musculus [24]): Active; Activity (Mus musculus [26]): Active; Activity (Vibrio harveyi [30]): Non-toxic; Activity (Mus musculus [31]): inactive; Activity (Vibrio harveyi [32]): Non-toxic; TD50 [33]: > 500 mg/kg; MED50 (Mus musculus [34]): 100 mg/kg; Activity (Mus musculus [35]; route intraperitoneal): 50%; TD50 at 4 h [36]: 300 mg/kg
CC1(c2ccccc2)CC(=O)N(CN2CCN(c3cccc(Cl)c3)CC2)C1=O (centres undefined),Non-toxic,> 250,41.1,50%,Non-toxic,Active,inactive,6,2,39.6,12.08,16.3,Non-toxic,27.9,7.76,25%,50,>8.95,86.9,25%,TD50 at 0.5 h [37]: 300 mg/kg; Activity (Mus musculus [14]; route intraperitoneal): 25%; inhibition (INH) (Vibrio harveyi [15]): 61%; inhibition (INH) (Vibrio harveyi [18]): 25%; inhibition (INH) (Vibrio harveyi [20]): 0%; inhibition (INH) (Vibrio harveyi [21]): 57%; Activity (Mus musculus [24]; route intraperitoneal): 50%; Activity (Mus musculus [38]): Non-toxic; Activity (Mus musculus [26]; route intraperitoneal): 25%; Activity (Vibrio harveyi [30]): Non-toxic; Activity (Mus musculus [31]): inactive; Activity (Vibrio harveyi [32]): Non-toxic; Activity (Mus musculus [39]): 50%; TD50 [33]: 496 mg/kg; MED50 (Mus musculus [34]): 30 mg/kg; Activity (Mus musculus [35]): inactive
CC1(c2ccccc2)CC(=O)N(CN2CCN(c3ccc(Cl)c(Cl)c3)CC2)C1=O (centres undefined),Toxic,168,37.3,Active,Non-toxic,50%,inactive,4,4,58.6,>13.41,3.08,Toxic,15.1,15.1,inactive,25,11.09,96.7,inactive,TD50 at 0.5 h [37]: 300 mg/kg; Activity (Mus musculus [14]): inactive; Activity (Mus musculus [24]): inactive; Activity (Mus musculus [38]): Non-toxic; Activity (Mus musculus [26]): inactive; Activity (Vibrio harveyi [30]): Non-toxic; Activity (Mus musculus [31]): inactive; Activity (Vibrio harveyi [32]): Non-toxic; Activity (Mus musculus [39]): 50%; TD50 [33]: > 500 mg/kg; MED50 (Mus musculus [34]): 30 mg/kg; Activity (Mus musculus [35]; route intraperitoneal): 25%
